What was measured:
Assay type in all cases: biochemical
PRMT5 [1] = biological target: T1, PRMT5 (Homo sapiens, UniProt O14744); assay: PRMT5 IC50 assay in the presence of SAM as cofactor
T1 construct: purchased Viva (custom protein)
Source text: (§1) Table 1a indicates IC50 values (μM) against PRMT5 for exemplary compounds in the presence of SAM as cofactor, with no cofactor and with MTA as cofactor, respectively (columns 3-5). […] The Ki values can be calculated from the IC50 values as described in the Examples section. As detailed in the Examples section, for the assay performed in the presence of SAM, IC50=Ki×1.5 (Ki=IC50/1.5). For the assay performed in the presence of MTA, IC50=Ki×13.5 (Ki=IC50/13.5). Column 6 indicates the ratio between the Ki of compounds in the presence of SAM and the Ki of compounds in the presence of MTA

PRMT5 [2] = biological target: T1, PRMT5; assay: PRMT5 IC50 assay with no cofactor
Source text: as §1

PRMT5 [3] = biological target: T1, PRMT5; assay: PRMT5 IC50 assay in the presence of MTA as cofactor; conditions: for IC50: PRMT5, MTA as cofactor
Source text: as §1

[4] = ratio between the Ki in the presence of SAM and the Ki in the presence of MTA
[5] = ratio between Ki in the presence of SAM and Ki in the presence of MTA

T1 sequence (O14744 whole entry): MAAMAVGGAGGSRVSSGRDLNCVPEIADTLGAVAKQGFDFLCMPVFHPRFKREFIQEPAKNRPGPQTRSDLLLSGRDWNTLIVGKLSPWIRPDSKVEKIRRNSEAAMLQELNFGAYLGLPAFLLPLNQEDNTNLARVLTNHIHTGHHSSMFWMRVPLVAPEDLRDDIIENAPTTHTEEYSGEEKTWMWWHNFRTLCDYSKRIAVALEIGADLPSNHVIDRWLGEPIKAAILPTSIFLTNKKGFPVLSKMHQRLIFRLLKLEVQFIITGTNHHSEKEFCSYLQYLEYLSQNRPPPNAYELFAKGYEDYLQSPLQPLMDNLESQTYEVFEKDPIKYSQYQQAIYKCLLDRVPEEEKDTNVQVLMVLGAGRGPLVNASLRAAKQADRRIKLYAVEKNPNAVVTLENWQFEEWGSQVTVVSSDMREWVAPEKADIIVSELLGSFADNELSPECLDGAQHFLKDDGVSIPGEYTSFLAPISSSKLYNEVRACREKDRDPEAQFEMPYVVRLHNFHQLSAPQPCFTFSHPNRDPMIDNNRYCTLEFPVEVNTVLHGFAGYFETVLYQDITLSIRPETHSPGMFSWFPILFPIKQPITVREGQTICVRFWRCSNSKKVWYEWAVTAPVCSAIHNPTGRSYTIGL
T1 sequence (Q9BQA1 whole entry partner): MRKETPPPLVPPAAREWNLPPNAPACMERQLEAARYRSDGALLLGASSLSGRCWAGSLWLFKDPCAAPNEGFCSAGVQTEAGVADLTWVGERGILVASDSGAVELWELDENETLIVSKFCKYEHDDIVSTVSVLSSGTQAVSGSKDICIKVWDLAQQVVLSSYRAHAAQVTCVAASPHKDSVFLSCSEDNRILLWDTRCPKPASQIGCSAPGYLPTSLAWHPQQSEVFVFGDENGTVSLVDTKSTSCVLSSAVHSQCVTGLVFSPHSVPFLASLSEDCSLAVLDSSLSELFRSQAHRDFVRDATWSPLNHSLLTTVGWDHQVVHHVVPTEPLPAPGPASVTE

SMILES | IC50 (PRMT5 [1]) [nM] | IC50 (PRMT5 [2]) [nM] | IC50 (PRMT5 [3]) [nM] | SAM/MTA Ratio (PRMT5 [3]; [4]) | IC50 (PRMT5 [2]; read-out: No Co-factor IC50) [nM] | SAM/MTA Ratio (PRMT5 [3]; [5])
COCC(=O)N1CC(Nc2cc(C(=O)NC[C@H](O)CN3CCc4c(ccc(OCc5cnco5)c4C)C3)ncn2)C1 [Compound 518, N-[(2S)-2-hydroxy-3-{5-methyl-6-[(1,3-oxazol-5-yl)methoxy]-1,2,3,4-tetrahydroisoquinolin-2-yl}propyl]-6-{[1-(2-methoxyacetyl)azetidin-3-yl]amino}pyrimidine-4-carboxamide] | 500 to 5000 | ≥ 5000 | 500 to 5000 | A (a Ki ratio greater than or equal to 10 fold between the Ki in the presence of SAM and the Ki in the presence of MTA) | – | –
Cc1c(OCc2cnco2)ccc2c1CCN(C[C@@H](O)CNC(=O)c1cc(NC3CCOCC3)ccn1)C2 [Compound 573, N-[(2S)-2-hydroxy-3-{5-methyl-6-[(1,3-oxazol-5-yl)methoxy]-1,2,3,4-tetrahydroisoquinolin-2-yl}propyl]-4-[(oxan-4-yl)amino]pyridine-2-carboxamide] | 500 to 5000 | ≥ 5000 | 500 to 5000 | A (a Ki ratio greater than or equal to 10 fold between the Ki in the presence of SAM and the Ki in the presence of MTA) | – | –
CC(=O)N1CC(Nc2cc(C(=O)NC[C@H](O)CN3CCc4c(ccc(OCc5cnco5)c4C)C3)ncn2)C1 [Compound 543, 6-[(1-acetylazetidin-3-yl)amino]-N-[(2S)-2-hydroxy-3-{5-methyl-6-[(1,3-oxazol-5-yl)methoxy]-1,2,3,4-tetrahydroisoquinolin-2-yl}propyl]pyrimidine-4-carboxamide] | 500 to 5000 | ≥ 5000 | 500 to 5000 | A (a Ki ratio greater than or equal to 10 fold between the Ki in the presence of SAM and the Ki in the presence of MTA) | – | –
Cc1ncoc1COc1ccc2c(c1)CCN(C[C@@H](O)CNC(=O)c1cc(NC3CCC3)nc(N3CCCCC3)c1)C2 [Compound 633, 2-(cyclobutylamino)-N-[(2S)-2-hydroxy-3-{6-[(4-methyl-1,3-oxazol-5-yl)methoxy]-1,2,3,4-tetrahydroisoquinolin-2-yl}propyl]-6-(piperidin-1-yl)pyridine-4-carboxamide] | 500 to 5000 | – | 50 to 500 | – | ≥ 5000 | A (a Ki ratio greater than or equal to 10 fold between the Ki in the presence of SAM and the Ki in the presence of MTA)
CC(=O)N1CCC(Nc2cc(C(=O)NC[C@H](O)CN3CCc4cc(OCc5ocnc5C)ccc4C3)cc(C(C)C)n2)CC1 [Compound 646, (S)-2-((1-acetylpiperidin-4-yl)amino)-N-(2-hydroxy-3-(6-((4-methyloxazol-5-yl)methoxy)-3,4-dihydroisoquinolin-2(1H)-yl)propyl)-6-isopropylisonicotinamide] | 50 to 500 | – | < 50 | – | 500 to 5000 | A (a Ki ratio greater than or equal to 10 fold between the Ki in the presence of SAM and the Ki in the presence of MTA)
O=C(NC[C@H](O)CN1CCc2c(ccc(OCc3cnco3)c2Cl)C1)c1cc(NC2CCC2)ncn1 [Compound 508, (S)—N-(3-(5-chloro-6-(oxazol-5-ylmethoxy)-3,4-dihydroisoquinolin-2(1H)-yl)-2-hydroxypropyl)-6-(cyclobutylamino)pyrimidine-4-carboxamide] | 500 to 5000 | ≥ 5000 | 50 to 500 | A (a Ki ratio greater than or equal to 10 fold between the Ki in the presence of SAM and the Ki in the presence of MTA) | – | –
CC(=O)N1CC(Nc2nc(C(=O)NC[C@H](O)CN3CCc4cc(OCc5ocnc5C)ccc4C3)cc(N3CCCCC3)n2)C1 [Compound 608, (S)-2-((1-acetylazetidin-3-yl)amino)-N-(2-hydroxy-3-(6-((4-methyloxazol-5-yl)methoxy)-3,4-dihydroisoquinolin-2(1H)-yl)propyl)-6-(piperidin-1-yl)pyrimidine-4-carboxamide] | 500 to 5000 | ≥ 5000 | 50 to 500 | A (a Ki ratio greater than or equal to 10 fold between the Ki in the presence of SAM and the Ki in the presence of MTA) | – | –
CC(=O)N1CCC(Nc2cc(C(=O)NC[C@H](O)CN3CCc4c(ccc(OCc5cnnn5C)c4C)C3)ncn2)CC1 [Compound 276, (S)-6-((1-acetylpiperidin-4-yl)amino)-N-(2-hydroxy-3-[5-methyl-6-((1-methyl-1H-1,2,3-triazol-5-yl)methoxy)-3N-dihydroisoquinolin-2(1H)-yl)propyl)pyrimidine-4-carboxamide] | 500 to 5000 | – | 500 to 5000 | – | ≥ 5000 | A (a Ki ratio greater than or equal to 10 fold between the Ki in the presence of SAM and the Ki in the presence of MTA)
CCCN(C)c1cc(C(=O)NC[C@H](O)CN2CCc3cc(OCc4ocnc4C)ccc3C2)cc(NC2CCC2)n1 [Compound 553, 2-(cyclobutylamino)-N-[(2S)-2-hydroxy-3-{6-[(4-methyl-1,3-oxazol-5-yl)methoxy]-1,2,3,4-tetrahydroisoquinolin-2-yl}propyl]-6-[methyl(propyl)amino]pyridine-4-carboxamide] | 500 to 5000 | ≥ 5000 | 50 to 500 | A (a Ki ratio greater than or equal to 10 fold between the Ki in the presence of SAM and the Ki in the presence of MTA) | – | –
Cc1c(OCc2cnco2)ccc2c1CCN(C[C@@H](O)CNC(=O)c1cccc(NC3CCOCC3)c1)C2 [Compound 548, N-[(2S)-2-hydroxy-3-{5-methyl-6-[(1,3-oxazol-5-yl)methoxy]-1,2,3,4-tetrahydroisoquinolin-2-yl}propyl]-3-[(oxan-4-yl)amino]benzamide] | 500 to 5000 | ≥ 5000 | 500 to 5000 | A (a Ki ratio greater than or equal to 10 fold between the Ki in the presence of SAM and the Ki in the presence of MTA) | – | –
CC1(CCC(=O)N2CCC(Nc3cc(C(=O)NC[C@H](O)CN4CCc5cc(OCc6cnco6)ccc5C4)ncn3)CC2)N=N1 [Compound 363, N-[(2S)-2-hydroxy-3-[6-(oxazol-5-ylmethoxy)-3N-dihydro-1H-isoquinolin-2-yl]propyl]-6-[[1-[3-(3-methyldiazirine-3-yl)propanoyl]-4-piperidyl]amino]pyrimidine-4-carboxamide] | 50 to 500 | – | 50 to 500 | – | 500 to 5000 | A (a Ki ratio greater than or equal to 10 fold between the Ki in the presence of SAM and the Ki in the presence of MTA)
COCCN(C)c1cc(NC2CCN(C(C)=O)CC2)cc(C(=O)NC[C@H](O)CN2CCc3cc(OCc4ocnc4C)ccc3C2)c1 (single isomer, unassigned) [Compound 649] | 500 to 5000 | – | 500 to 5000 | – | ≥ 5000 | A (a Ki ratio greater than or equal to 10 fold between the Ki in the presence of SAM and the Ki in the presence of MTA)
CC(=O)N1CCC(Nc2cc(C(=O)NC[C@H](O)CN3CCc4c(C)c(OCc5ocnc5C)cc(F)c4C3)cc(N3CCCCC3)n2)CC1 [Compound 653] | 500 to 5000 | – | 500 to 5000 | – | ≥ 5000 | A (a Ki ratio greater than or equal to 10 fold between the Ki in the presence of SAM and the Ki in the presence of MTA)
CC(=O)N1CC(Nc2cc(C(=O)NCC(O)CN3CCc4cc(OCc5ocnc5C)ccc4C3)nc(N3CCCCC3)c2)C1 (stereo not shown) [Compound 580] | – | 500 to 5000 | – | – | – | –
CC(=O)N1CCC(Nc2cc(C(=O)NCC(O)CN3CCc4nc(OCc5ocnc5C)ccc4C3)cc(N3CCCCC3)n2)CC1 (stereo not shown) [Compound 654] | – | – | 50 to 500 | – | 500 to 5000 | –

— patent publication US11986471B2, “Compounds and methods of use” (Tango Therapeutics, Inc., priority 2018, dated 2024)
